In US8008425B2, “Thiophene compound having sulfonyl group and process for producing the same” (Nissan Chemical Industries, Ltd., priority 2005, dated 2011) one finds level of solubility data, which are given here for two compounds.

The data set is described as follows: Solubility test. It counts as physicochemical. The note with it: 25° C., ultrasonic waves, 5 mg, solvent added 50 μL by 50 μL. The method, then:
The solubility of each of the sulfonylthiophene compounds synthesized in Examples 21 and 22 was determined under ultrasonic waves at 25° C. by adding, to aliquots (5 mg) of the sulfonylthiophene compound, tetrahydrofuran (THF), toluene, N,N-dimethylformamide (DMF), chloroform, ethyl acetate and ethanol 50 μL by 50 μL, respectively, until they were dissolved. The level of solubility was ranked in accordance with the following standards. • ⊚: Dissolved with 50 μL (concentration: 10%) • ◯: Dissolved with 100 μL (concentration: 5%) • Δ: Dissolved with 200 μL (concentration: 2.5%) • X: Not dissolved even by the addition of 500 μL (concentration: 1% or lower)

In the case of `CCCCCCCCS(=O)(=O)c1cc(-c2ccc(N(c3ccccc3)c3ccccc3)cc2)sc1-c1ccc(N(c2ccccc2)c2ccccc2)cc1` [Example 22, 4,4′-{3-(octane-1-sulfonyl)-thiophene-2,5-diyl}bis(N,N-diphenylaniline)], the level of solubility result was “⊚ (Dissolved with 50 μL (concentration: 10%))” (Chloroform); “⊚ (Dissolved with 50 μL (concentration: 10%))” (DMF); “X (Not dissolved even by the addition of 500 μL (concentration: 1% or lower))” (Ethanol); “⊚ (Dissolved with 50 μL (concentration: 10%))” (Ethyl acetate); “⊚ (Dissolved with 50 μL (concentration: 10%))” (THF); “⊚ (Dissolved with 50 μL (concentration: 10%))” (Toluene).
Take `CCCCCCCCS(=O)(=O)c1c(-c2ccc(N(c3ccccc3)c3ccccc3)cc2)sc(-c2ccc(N(c3ccccc3)c3ccccc3)cc2)c1S(=O)(=O)CCCCCCCC` [Example 21, 4,4′-{3,4-bis(octane-1-sulfonyl)-thiophene-2,5-diyl}bis(N,N-diphenylaniline)]: the level of solubility result by setting is: (Chloroform) “⊚ (Dissolved with 50 μL (concentration: 10%))”; (DMF) “Δ (Dissolved with 200 μL (concentration: 2.5%))”; (Ethanol) “X (Not dissolved even by the addition of 500 μL (concentration: 1% or lower))”; (Ethyl acetate) “◯ (Dissolved with 100 μL (concentration: 5%))”; (THF) “◯ (Dissolved with 100 μL (concentration: 5%))”; (Toluene) “◯ (Dissolved with 100 μL (concentration: 5%))”.
